Data on 1 substance can be found in patent publication US6893627B2, “Method for treating type 2 diabetes with an extract of Artemisia” (Rutgers, The State University of New Jersey, priority 2001, dated 2005).

This assay has as its system Streptozotocin (STZ)-treated mice. The experiment in a line: Blood glucose lowering in Streptozotocin (STZ)-treated mice. Type of assay: in vivo. The settings on record: insulin 1 IU/kg subcutaneously. The protocol:
The efficacy of the Artemisia dracunculus extract was evaluated in Streptozotocin (STZ)-treated mice. STZ induces diabetes by destroying most, if not all, of the beta cells of the pancreas, leaving the animals with little or no insulin production and severe hyperglycemia [Hisashi, et al., European Journal of Pharmacology, 87:237-243 (1983)]. […] Mice were treated with STZ as described by Hisashi et al., European Journal of Pharmacology, 87:237-243 (1983). A 500 mg/kg dose of Artemisia dracunculus extract was administered daily by oral gavage to STZ-treated mice for a period of 7 days. Additionally, a dose of insulin (1 IU/kg) was administered. subcutaneously to STZ-treated mice, while 20 ml/kg of vehicle only (0.9% NaCl or 2% Tween 80 in distilled water) was administered to STZ-treated mice, as a control. […] Regardless of mechanism, however, the results establish that plant extracts, such as the mildly polar ethanolic extract of A. dracunculus, can be orally administered in a dose effective in lowering blood glucose levels.

With insulin, the “reduction in blood glucose concentrations” value was determined as 42%.
